Values joined by “and” are separate entries in the source; they are usually repeats but may differ in a detail not shown here. Equal entries are not always repeated. Where two headings read alike, the source gives them in different places.
Key:
[1] = tested on: E. coli AG100A (AcrAB pump-deficient); experiment: MIC, broth microdilution; type: cell-based, Escherichia coli; details: Escherichia coli
[2] = tested on: E. coli AG100tet (AcrAB overexpressing); experiment: MIC, broth microdilution; type: cell-based, Escherichia coli; details: Escherichia coli
[3] = tested on: E. coli AG100A; experiment: microbe, parasite or virus in culture; type: cell-based, Escherichia coli; details: for MIC: Escherichia coli, AG100A
Experimental: The minimum inhibitory concentrations (MICs) were determined using the broth microdilution method according to the CLSI guidelines ([Clinical and Laboratory Standards Institute, 2014]). […] Two-fold serial dilutions of the compounds were made to achieve the following concentrations: 320 µM–40 µM. The MICs were determined as the lowest concentration at which no visible growth was observed after 18 h of incubation at 37 °C. The assays were performed in triplicate and the MIC value was given as result of at least two concordant values.

[4] = tested on: E. coli AG100; experiment: EtBr efflux by real-time fluorometry; details: AG100, AG100A and AG100tet (Fig. 2); 80 μM (20 μM for AG100A); glucose, 37 °C
Experimental: Control tubes with only cells and cells with and without 0.4% glucose were included. The fluorescence was measured in a Rotor-Gene 3000 and the data was acquired every 30 s for 30 min at 37 °C. The efflux activity was quantified by comparing the fluorescence data obtained under conditions that promote efflux (presence of glucose and absence of efflux inhibitor) with the data from the control in which the bacteria are under conditions of no efflux (presence of an inhibitor and no energy source).

[5] = tested on: E. coli AG100tet; experiment: EtBr efflux by real-time fluorometry; details: 80 µM

## CN(C)CCCN1c2ccccc2Sc2ccc(Cl)cc21 [CPZ, chlorpromazine]
[1]
  MIC: 60 µg/mL and 169 µM
[2]
  MIC: 280 µg/mL and 788 µM
[3]; AG100A (pump-deficient strain)
  reduction in TET MIC: 4 fold
[3]; read-out: MIC of EtBr in presence of the efflux inhibitor
  MIC: 0.39 µg/mL
[3]; read-out: MIC of OFX in presence of the efflux inhibitor
  MIC: 0.015 µg/mL
[3]; read-out: MIC of OXA in presence of the efflux inhibitor
  MIC: 2 µg/mL
[3]; read-out: MIC of TET in presence of the efflux inhibitor
  MIC: 0.125 µg/mL
[4]
  inhibition of EtBr efflux: inhibited
[5]; cycle 1, + glucose
  Fluorescence raw data, Channel Cycling A.530/585hp: 6.9729
[5]; cycle 1, without glucose
  Fluorescence raw data, Channel Cycling A.530/585hp: 6.962
[5]; cycle 2, + glucose
  Fluorescence raw data, Channel Cycling A.530/585hp: 6.777
[5]; cycle 2, without glucose
  Fluorescence raw data, Channel Cycling A.530/585hp: 6.801
[5]; cycle 3, + glucose
  Fluorescence raw data, Channel Cycling A.530/585hp: 6.512
[5]; cycle 3, without glucose
  Fluorescence raw data, Channel Cycling A.530/585hp: 6.754
[5]; cycle 4, without glucose
  Fluorescence raw data, Channel Cycling A.530/585hp: 6.877
[5]; cycle 5, without glucose
  Fluorescence raw data, Channel Cycling A.530/585hp: 7.026
[5]; cycle 6, without glucose
  Fluorescence raw data, Channel Cycling A.530/585hp: 7.1507
[5]; cycle 7, without glucose
  Fluorescence raw data, Channel Cycling A.530/585hp: 7.108
[5]; cycle 8, without glucose
  Fluorescence raw data, Channel Cycling A.530/585hp: 7.075
[5]; cycle 9, + glucose
  Fluorescence raw data, Channel Cycling A.530/585hp: 6.252
[5]; cycle 9, without glucose
  Fluorescence raw data, Channel Cycling A.530/585hp: 7.246
[5]; cycle 10, + glucose
  Fluorescence raw data, Channel Cycling A.530/585hp: 6.3883
[5]; cycle 10, without glucose
  Fluorescence raw data, Channel Cycling A.530/585hp: 7.315
[5]; cycle 11, + glucose
  Fluorescence raw data, Channel Cycling A.530/585hp: 6.371
[5]; cycle 11, without glucose
  Fluorescence raw data, Channel Cycling A.530/585hp: 7.397
[5]; cycle 12, + glucose
  Fluorescence raw data, Channel Cycling A.530/585hp: 6.405
[5]; cycle 12, without glucose
  Fluorescence raw data, Channel Cycling A.530/585hp: 7.4437
[5]; cycle 13, + glucose
  Fluorescence raw data, Channel Cycling A.530/585hp: 6.558
[5]; cycle 13, without glucose
  Fluorescence raw data, Channel Cycling A.530/585hp: 7.742
[5]; cycle 14, + glucose
  Fluorescence raw data, Channel Cycling A.530/585hp: 6.536
[5]; cycle 14, without glucose
  Fluorescence raw data, Channel Cycling A.530/585hp: 7.795
[5]; cycle 15, + glucose
  Fluorescence raw data, Channel Cycling A.530/585hp: 6.4669
[5]; cycle 15, without glucose
  Fluorescence raw data, Channel Cycling A.530/585hp: 7.899
[5]; cycle 16, + glucose
  Fluorescence raw data, Channel Cycling A.530/585hp: 6.613
[5]; cycle 16, without glucose
  Fluorescence raw data, Channel Cycling A.530/585hp: 7.989
[5]; cycle 17, + glucose
  Fluorescence raw data, Channel Cycling A.530/585hp: 6.675
[5]; cycle 17, without glucose
  Fluorescence raw data, Channel Cycling A.530/585hp: 8.041
[5]; cycle 18, + glucose
  Fluorescence raw data, Channel Cycling A.530/585hp: 6.686
[5]; cycle 18, without glucose
  Fluorescence raw data, Channel Cycling A.530/585hp: 8.027
[5]; cycle 19, + glucose
  Fluorescence raw data, Channel Cycling A.530/585hp: 6.605
[5]; cycle 19, without glucose
  Fluorescence raw data, Channel Cycling A.530/585hp: 8.219
[5]; cycle 20, + glucose
  Fluorescence raw data, Channel Cycling A.530/585hp: 6.711
[5]; cycle 20, without glucose
  Fluorescence raw data, Channel Cycling A.530/585hp: 8.174
[5]; cycle 21, + glucose
  Fluorescence raw data, Channel Cycling A.530/585hp: 6.762
[5]; cycle 21, without glucose
  Fluorescence raw data, Channel Cycling A.530/585hp: 8.255
[5]; cycle 22, + glucose
  Fluorescence raw data, Channel Cycling A.530/585hp: 6.7278
[5]; cycle 22, without glucose
  Fluorescence raw data, Channel Cycling A.530/585hp: 8.507
[5]; cycle 23, + glucose
  Fluorescence raw data, Channel Cycling A.530/585hp: 6.745
[5]; cycle 23, without glucose
  Fluorescence raw data, Channel Cycling A.530/585hp: 8.467
[5]; cycle 24, + glucose
  Fluorescence raw data, Channel Cycling A.530/585hp: 6.771
[5]; cycle 24, without glucose
  Fluorescence raw data, Channel Cycling A.530/585hp: 8.6
[5]; cycle 25, + glucose
  Fluorescence raw data, Channel Cycling A.530/585hp: 6.796
[5]; cycle 25, without glucose
  Fluorescence raw data, Channel Cycling A.530/585hp: 8.667
[5]; cycle 26, + glucose
  Fluorescence raw data, Channel Cycling A.530/585hp: 6.92
[5]; cycle 26, without glucose
  Fluorescence raw data, Channel Cycling A.530/585hp: 8.734
[5]; cycle 27, + glucose
  Fluorescence raw data, Channel Cycling A.530/585hp: 6.8217
[5]; cycle 27, without glucose
  Fluorescence raw data, Channel Cycling A.530/585hp: 8.768
[5]; cycle 28, + glucose
  Fluorescence raw data, Channel Cycling A.530/585hp: 6.925
[5]; cycle 28, without glucose
  Fluorescence raw data, Channel Cycling A.530/585hp: 8.988
[5]; cycle 29, + glucose
  Fluorescence raw data, Channel Cycling A.530/585hp: 6.828
[5]; cycle 29, without glucose
  Fluorescence raw data, Channel Cycling A.530/585hp: 9.111
[5]; cycle 30, + glucose
  Fluorescence raw data, Channel Cycling A.530/585hp: 6.9
[5]; cycle 30, without glucose
  Fluorescence raw data, Channel Cycling A.530/585hp: 8.957
[5]; cycle 31, + glucose
  Fluorescence raw data, Channel Cycling A.530/585hp: 6.782
[5]; cycle 31, without glucose
  Fluorescence raw data, Channel Cycling A.530/585hp: 9.091
[5]; cycle 32, + glucose
  Fluorescence raw data, Channel Cycling A.530/585hp: 6.729
[5]; cycle 32, without glucose
  Fluorescence raw data, Channel Cycling A.530/585hp: 9.229
[5]; cycle 33, + glucose
  Fluorescence raw data, Channel Cycling A.530/585hp: 6.907
[5]; cycle 33, without glucose
  Fluorescence raw data, Channel Cycling A.530/585hp: 9.3007
[5]; cycle 34, + glucose
  Fluorescence raw data, Channel Cycling A.530/585hp: 6.901
[5]; cycle 34, without glucose
  Fluorescence raw data, Channel Cycling A.530/585hp: 9.345
[5]; cycle 35, + glucose
  Fluorescence raw data, Channel Cycling A.530/585hp: 6.783
[5]; cycle 35, without glucose
  Fluorescence raw data, Channel Cycling A.530/585hp: 9.405
[5]; cycle 36, + glucose
  Fluorescence raw data, Channel Cycling A.530/585hp: 6.785
[5]; cycle 36, without glucose
  Fluorescence raw data, Channel Cycling A.530/585hp: 9.367
[5]; cycle 37, + glucose
  Fluorescence raw data, Channel Cycling A.530/585hp: 6.975
[5]; cycle 37, without glucose
  Fluorescence raw data, Channel Cycling A.530/585hp: 9.488
[5]; cycle 38, + glucose
  Fluorescence raw data, Channel Cycling A.530/585hp: 6.976
[5]; cycle 38, without glucose
  Fluorescence raw data, Channel Cycling A.530/585hp: 9.581
[5]; cycle 39, + glucose
  Fluorescence raw data, Channel Cycling A.530/585hp: 6.681
[5]; cycle 39, without glucose
  Fluorescence raw data, Channel Cycling A.530/585hp: 9.571
[5]; cycle 40, + glucose
  Fluorescence raw data, Channel Cycling A.530/585hp: 6.952
[5]; cycle 40, without glucose
  Fluorescence raw data, Channel Cycling A.530/585hp: 9.707
[5]; cycle 41, + glucose
  Fluorescence raw data, Channel Cycling A.530/585hp: 6.766
[5]; cycle 41, without glucose
  Fluorescence raw data, Channel Cycling A.530/585hp: 9.731
[5]; cycle 42, + glucose
  Fluorescence raw data, Channel Cycling A.530/585hp: 6.916
[5]; cycle 42, without glucose
  Fluorescence raw data, Channel Cycling A.530/585hp: 9.718
[5]; cycle 43, + glucose
  Fluorescence raw data, Channel Cycling A.530/585hp: 6.844
[5]; cycle 43, without glucose
  Fluorescence raw data, Channel Cycling A.530/585hp: 9.8689
[5]; cycle 44, + glucose
  Fluorescence raw data, Channel Cycling A.530/585hp: 6.82
[5]; cycle 44, without glucose
  Fluorescence raw data, Channel Cycling A.530/585hp: 9.768
[5]; cycle 45, without glucose
  Fluorescence raw data, Channel Cycling A.530/585hp: 9.807
[5]; cycle 46, without glucose
  Fluorescence raw data, Channel Cycling A.530/585hp: 9.797
[5]; cycle 47, without glucose
  Fluorescence raw data, Channel Cycling A.530/585hp: 9.663
[5]; cycle 48, without glucose
  Fluorescence raw data, Channel Cycling A.530/585hp: 9.794
[5]; cycle 49, without glucose
  Fluorescence raw data, Channel Cycling A.530/585hp: 9.745
[5]; cycle 50, without glucose
  Fluorescence raw data, Channel Cycling A.530/585hp: 9.769
[5]; cycle 51, without glucose
  Fluorescence raw data, Channel Cycling A.530/585hp: 9.982
[5]; cycle 52, without glucose
  Fluorescence raw data, Channel Cycling A.530/585hp: 9.725
[5]; cycle 53, without glucose
  Fluorescence raw data, Channel Cycling A.530/585hp: 9.758
[5]; cycle 54, without glucose
  Fluorescence raw data, Channel Cycling A.530/585hp: 9.768
[5]; cycle 55, without glucose
  Fluorescence raw data, Channel Cycling A.530/585hp: 9.755
[5]; cycle 56, without glucose
  Fluorescence raw data, Channel Cycling A.530/585hp: 9.766
[5]; cycle 57, without glucose
  Fluorescence raw data, Channel Cycling A.530/585hp: 9.676
[5]; cycle 58, without glucose
  Fluorescence raw data, Channel Cycling A.530/585hp: 9.567
[5]; cycle 59, without glucose
  Fluorescence raw data, Channel Cycling A.530/585hp: 9.679
[5]; cycle 60, without glucose
  Fluorescence raw data, Channel Cycling A.530/585hp: 9.626
[5]; cycle 61, without glucose
  Fluorescence raw data, Channel Cycling A.530/585hp: 9.5963
